ChEMBL document CHEMBL5120920, “A Mitochondria-Targeted Phenylbutyric Acid Prodrug Confers Drastically Improved Anticancer Activities” (J Med Chem, 2022)
The source made the active and inactive calls. No cut-off for these calls is given here.

Experiments:
[1] = Toxicity in nude mouse xenografted with human A-375 cells assessed as body weight loss at 10 to 40 mg/kg, ip measured once every two days for 14 days; type: organism-based; settings: in vivo, 336 h, dose 10-40 mg/kg, time 14 day
[2] = system: A-375; experiment: Inhibition of glycolysis in human A-375 cells assessed as reduction in extracellular acidification rate at 0.25 to 1 uM measured after 4 hrs; type: functional, cell-based; settings: dose 0.25-1 µM
[3] = Efflux ratio of apparent permeability from basolateral to apical side over apical to basolateral side in human Caco2 cells by LC-MS/MS analysis; type: ADME, cell-based; settings: Caco-2
[4] = system: A-375; experiment: Inhibition of colony formation in human A-375 cells preincubated for 72 hrs followed by drug free medium addition for 10 to 14 days by crystal violet staining based analysis; type: functional, cell-based; settings: dose 0.5-1 µM, DDE = dose-dependent effect
[5] = Toxicity in BALB/c mouse assessed as change in body weight at 40 mg/kg, iv measured once every two days for 7 days; type: organism-based; settings: in vivo, 168 h, time 7 day
[6] = system: MCF7; experiment: Induction of mitochondrial membrane hyperpolarization in human MCF7 cells assessed as JC-1 level at 2.5 to 10 uM incubated for 4 hrs by JC-1 staining based flow cytometry analysis relative to control; type: functional; settings: dose 2.5-10 µM
[7] = system: MCF7; experiment: Antiproliferative activity against human MCF7 cells assessed as inhibition of cell viability incubated for 72 hrs by MTT assay; type: functional, cell-based; settings: MCF7, 72 h
[8] = system: A-375; experiment: Induction of cell cycle arrest in human A-375 cells assessed as accumulation at G2 phase at 2.5 uM incubated for 24 hrs by PI staining based flow cytometry analysis (reference value: 7.92 %); type: functional
[9] = Metabolic stability in Sprague-Dawley rat plasma assessed as elimination half life by LC-MS/MS analysis; type: ADME, cell-free; settings: read-out: beta t1/2
[10] = molecular target: T1, Histone deacetylase (Homo sapiens) (UniProt Q13547+O15379+Q9UBN7+Q92769+Q9UQL6+Q8WUI4+Q9BY41+Q96DB2+P56524+Q9UKV0+Q969S8); experiment: Inhibition of HDAC in human A-375 cells assessed as upregulation of histone-H3 acetylation at 5 to 20 uM measured after 24 hrs; type: cell-based; settings: dose 5-20 µM
[11] = system: A-375; experiment: Antitumor activity against human A-375 cells xenografted in nude mouse assessed as tumor growth inhibition at 10 to 40 mg/kg, ip and measured once every two days for 14 days; type: functional, organism-based; settings: dose 10-40 mg/kg, time 14.0 day
[12] = system: A549; experiment: Induction of mitochondrial membrane hyperpolarization in human A549 cells assessed as JC-1 level at 2.5 to 10 uM incubated for 4 hrs by JC-1 staining based flow cytometry analysis relative to control; type: functional; settings: dose 2.5-10 µM
[13] = system: A-375; experiment: Induction of cell cycle arrest in human A-375 cells assessed as accumulation at G1 phase at 7.5 uM incubated for 24 hrs by PI staining based flow cytometry analysis (reference value: 68.07 %); type: functional
[14] = system: A-375; experiment: Induction of cell cycle arrest in human A-375 cells assessed as accumulation at G1 phase at 5 uM incubated for 24 hrs by PI staining based flow cytometry analysis (reference value: 68.07 %); type: functional
[15] = system: MDA-MB-231; experiment: Induction of mitochondrial membrane hyperpolarization in human MDA-MB-231 cells assessed as JC-1 level at 2.5 to 10 uM incubated for 4 hrs by JC-1 staining based flow cytometry analysis relative to control; type: functional; settings: dose 2.5-10 µM
[16] = molecular target: T1, Histone deacetylase (Homo sapiens); experiment: Inhibition of HDAC in human A-375 cells assessed as upregulation of alpha-tubulin acetylation at 5 to 20 uM measured after 24 hrs; type: cell-based; settings: dose 5-20 µM
[17] = system: A-375; experiment: Antitumor activity against human A-375 cells implanted in BALB/c mouse assessed as tumor growth inhibition at 40 mg/kg, ip measured once every two days for 14 days; type: functional, organism-based; settings: time 14.0 day
[18] = Stability of the compound in Tris-HCL buffer at pH 7.4 measured for 24 hrs by RP-HPLC-UV analysis; type: physicochemical; settings: pH 7.4, 24 h
[19] = system: A-375; experiment: Induction of mitochondrial damage in human A-375 cells assessed as decrease in oxygen consumption rate at 5 uM measured after 4 hrs; type: functional, cell-based
[20] = system: A-375; experiment: Induction of cell cycle arrest in human A-375 cells assessed as accumulation at G2 phase at 7.5 uM incubated for 24 hrs by PI staining based flow cytometry analysis (reference value: 7.92 %); type: functional
[21] = Toxicity in BALB/c mouse assessed as death of animal at 125 to 200 mg/kg, iv administered for 7 days; type: organism-based; settings: in vivo, 168 h, dose 125-200 mg/kg, time 7 day
[22] = system: A-375; experiment: Inhibition of glycolysis in human A-375 cells assessed as reduction in lactate formation at 0.25 to 5 uM incubated for 8 hrs; type: functional, cell-based; settings: dose 0.25-5 µM
[23] = system: A-375; experiment: Antitumor activity against human A-375 cells xenografted in nude mouse assessed as induction of apoptosis by measuring morphological changes at 40 mg/kg, ip measured once every two days for 14 days by TUNEL assay; type: functional, organism-based; settings: time 14.0 day
[24] = Toxicity in BALB/c mouse assessed as histopathological changes in kidney at 50 to 100 mg/kg, iv measured after 7 days by H and E staining based assay; type: organism-based; settings: in vivo, 168 h, dose 50-100 mg/kg, time 7 day
[25] = system: A-375; experiment: Antitumor activity against human A-375 cells implanted in BALB/c mouse assessed as reduction in tumor weight at 40 mg/kg, ip measured once every two days for 14 days; type: functional, organism-based; settings: time 14.0 day
[26] = system: MDA-MB-231; experiment: Antiproliferative activity against human MDA-MB-231 cells assessed as inhibition of cell viability incubated for 72 hrs by MTT assay; type: functional, cell-based; settings: MDA-MB-231, 72 h
[27] = system: A-375; experiment: Induction of mitochondrial membrane depolarization in human A-375 cells assessed as increase in JC-1 monomer incubated for 4 hrs by JC-1 staining based flow cytometry analysis; type: functional, cell-based; settings: dose 2.5-10 µM, DDE = dose-dependent effect
[28] = system: A-375; experiment: Induction of cell cycle arrest in human A-375 cells assessed as accumulation at S phase at 2.5 uM incubated for 24 hrs by PI staining based flow cytometry analysis (reference value: 24.01 %); type: functional
[29] = system: A-375; experiment: Antiproliferative activity against human A-375 cells assessed as inhibition of cell viability incubated for 72 hrs by MTT assay; type: functional, cell-based; settings: A-375, 72 h
[30] = system: A-375; experiment: Induction of cell cycle arrest in human A-375 cells assessed as accumulation at G1 phase at 2.5 uM incubated for 24 hrs by PI staining based flow cytometry analysis (reference value: 68.07 %); type: functional
[31] = molecular target: Pyruvate dehydrogenase kinase (Homo sapiens) (UniProt Q15119+Q15120+Q16654+Q15118); experiment: Inhibition of PDK in human A-375 cells assessed as reduction in PDH phosphorylation at ser293 residue at 5 to 20 uM after 24 to 48 hrs; type: cell-based; settings: dose 5-20 µM, time 24-48 hrs
[32] = system: A-375; experiment: Cytotoxicity against human A-375 cells assessed as reduction in cell vaibility measured at 48 hrs in presence of BNPP by MTT assay; type: functional, cell-based; settings: A-375, 48 h
[33] = system: A-375; experiment: Effect on mitochondrial bio-energestics in human A-375 cells assessed as increase in OCR/ECRA ratio at 0.25 to 1 uM measured after 4 hrs; type: functional, cell-based; settings: dose 0.25-1 µM

O=C(CCCCCCCCC[P+](c1ccc(C(F)(F)F)cc1)(c1ccc(C(F)(F)F)cc1)c1ccc(C(F)(F)F)cc1)NC(COC(=O)CCCc1ccccc1)(COC(=O)CCCc1ccccc1)COC(=O)CCCc1ccccc1.[Br-]
Activity [1]: Non-Toxic | inhibition [2]: Active | efflux ratio [3]: 0.69 | inhibition [4]: Dde | Activity [5]: Non-Toxic | Activity [6]: 3.6% | IC50 [7]: 6.02 µM | Activity [8]: 8.58% | half-life [9]: 4.28 h | inhibition [10]: Active | Activity [11]: Active | Activity [12]: 5.01% | Activity [13]: 80.37% | Activity [14]: 75.69% | Activity [15]: 3.27% | inhibition [16]: Active | Activity [17]: Active | Stability [18]: Stable | Activity [19]: Active | Activity [20]: 7.88% | Activity [21]: Non-Toxic | inhibition [22]: Active | Activity [23]: Active | Activity [24]: Non-Toxic | Activity [25]: Active | IC50 [26]: 3.71 µM | Activity [27]: Dde | Activity [28]: 16.71% | IC50 [29]: 2.22 µM | Activity [30]: 74.71% | inhibition [31]: Active | IC50 [32]: 18.9 µM | Activity [33]: Active
